From patent publication US11491117B2, “Compounds for the prevention and treatment of glucose intolerance related conditions and obesity” (SORBONNE UNIVERSITÉ, priority 2017, dated 2022)

System: C57BL/6J mice fed control chow diet (CHD) or high fat diet (HFD)
Assay: Chronic subcutaneous infusion in mice fed control chow or high fat diet: body growth, glucose homeostasis (IPGTT), insulin secretion, organ weight, liver triglycerides
Type: in vivo, mouse
Method: Six weeks-old C57BL/6J male mice (Janvier Labs, Courtaboeuf, France) were received and acclimated in specific pathogen free (SPF) maintenance condition. Mice had free access to a standard chow diet (R04-40, Safe, Augy, France) and were kept on 12 h light/dark cycle. After one week, a group of 12 mice was fed control carbohydrate diet (CHD) (D 12450Ki, Research diets, NJ) and a group of 12 mice was fed high fat (60% fat and sucrose) diet (HFD) (D12492i, Research diets, NJ).
After three weeks of metabolite treatment (i.e. four weeks of HFD feeding) an intra-peritoneal glucose tolerance test (IPGTT) (2 g/kg) was performed in conscious mice following an overnight fast. Blood was collected from the tail vein before glucose injection and 15, 30, 60 and 120 minutes afterwards. Additional blood samples were collected during the IPGTT in GK rats 15, 90, 180 and 240 minutes after glucose injection. Blood glucose levels were determined using an Accu-Check® Performa (Roche Diagnostics, Meylan, France). Additional blood samples were collected at base line and 30 minutes after glucose injection in Microvette® CB 300 Lithium Heparin (Sarstedt, Marnay, France). Plasma was separated by centrifugation and stored at −80° C. until insulin radioimmunoassay. Evaluation of overall glucose tolerance was obtained from cumulative glycemia (GCum) and the ΔG, which were determined by the total increment of plasma glucose values during the IPGTT (GCum) and the cumulative glycemia during the test above baseline (ΔG). After six weeks of metabolite treatment, mice were killed by decapitation and organ were dissected and weighed. Half of liver, fat and pancreas samples were snap frozen in liquid nitrogen and stored at −80° C. for molecular studies, and the second half processed for histopathology. All procedures were authorized following review by the institutional ethic committee and carried out under national license condition (Ref 00486.02).
Blood glucose was measured using an Accu-Check® Performa (Roche Diagnostics, Meylan, France) and plasma insulin was determined using Insulin ELISA kits (Mercodia, Uppsala, Sweden). For determination of liver triglycerides, liver samples (100 mg) were homogenized and incubated in NonidetP-40 (5%) and supernatants containing triglycerides were collected. Triglycerides concentration was quantified in the supernatant fraction using a colorimetric assay (ab65336, Abcam, Paris, France) by measuring OD at 570 nm. The ratio NAD/NADH was determined using a quantification kit (MAK037; SigmaAldrich, St Quentin, France) on extracts prepared from 20 mg pancreas tissue. Samples were homogenized in the extraction buffer and clarified by centrifugation. Supernatant was deproteinized by filtration through a 10-kDa cutoff spin filter (Millipore SAS, Molsheim, France). The assay was then performed according to the manufacturer's instructions.
As expected, mice fed HFD rapidly gained more weight than mice fed control diet and developed fasting hyperglycemia and marked glucose intolerance (FIG. 1A-1F).

Question: Which “adiposity index (retroperitoneal fat pads to body weight)” value (both diet groups (CHD, HFD), 6 weeks, vs saline) does the source give for `Cc1ccc(O)c(O)c1` [4-MC, 4-methylcatechol] here?
Answer: significant reduction

Question: And the liver triglycerides content (both diet groups, vs saline)?
Answer: significant reduction

Question: And the cumulative glycemia (both diets, IPGTT, vs saline)?
Answer: reduced

Question: What about the glucose tolerance (both diets, IPGTT, vs saline) of the same compound?
Answer: improved glucose tolerance

Question: And the ΔG (both diets, IPGTT, vs saline)?
Answer: reduced

Question: And the fasting glycemia (both diets, vs saline)?
Answer: reduced

Question: What about the insulin secretion (both diets, vs saline) of the same compound?
Answer: increased insulin secretion

Question: And the liver weight (mice fed HFD or control diet)?
Answer: significant reduction

Question: What about the pancreas weight (mice fed HFD or control diet) of the same compound?
Answer: increased pancreas weight

Question: And the body growth (mice fed chow diet or HFD, chronic treatment, vs saline)?
Answer: strong reduction

Question: What about the BMI (mice fed chow diet or HFD, vs saline) of the same compound?
Answer: strong reduction
